The results in this text go back to patent US11827628B2, “Compositions and methods for inhibition of the JAK pathway” (Rigel Pharmaceuticals, Inc., priority 2005, dated 2023).

For the assay, the system named is up-regulation of ICAM-1 (CD54) by IFNγ in A549 lung epithelial cells. Nature of the assay: A549 Epithelial Line Stimulated with IFNγ (ICAM-1 surface expression, FACS). In kind it is cell-based, human. To be noted: A549 epithelial line stimulated with IFNγ; ICAM-1 expression by FACS; read-out: IC50, Example 43. In short, it runs like this: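 A549 cells pre-incubated 1 h with compound (30 μM to 14 nM, 5% FBS, 0.3% DMSO), then stimulated with IFNγ (75 ng/mL) for 24 h. Surface ICAM-1 stained with APC anti-CD54 and read by flow cytometry; geometric mean of live-gated events plotted against concentration for EC50.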

The structures appear in SMILES notation.

By IC50 is commonly meant the point on the concentration scale where inhibition reaches its midpoint.

`CC(Oc1ccc(Nc2nc(Nc3cccc(S(N)(=O)=O)c3)ncc2F)cc1)C(N)=O` (racemic) [Compound I-117, Racemic N4-[4-(1-Aminocarbonyl)ethoxy]phenyl-N2-(3-aminosulfonyl)phenyl-5-fluoro-2,4-pyrimidinediamine]: the IC50 is 36.4 µM.
Consider `Cc1cc(Nc2nc(Nc3ccc(S(N)(=O)=O)cc3)ncc2F)ccc1OC(C)C(N)=O` (racemic) [Compound I-119, Racemic N4-[4-(1-Aminocarbonyl)ethoxy-3-methyl]phenyl-N2-(4-aminosulfonyl)phenyl-5-fluoro-2,4-pyrimidinediamine], for which the IC50 is 9.67 µM.
For `Cc1cc(Nc2nc(Nc3cccc(S(N)(=O)=O)c3)ncc2F)ccc1OC(C)C(N)=O` (racemic) [Compound I-120, Racemic N4-[4-(1-Aminocarbonyl)ethoxy-3-methyl]phenyl-N2-(3-aminosulfonyl)phenyl-5-fluoro-2,4-pyrimidinediamine] the value was 20 µM; for `Cc1cc(Nc2nc(Nc3ccc(C)c(S(N)(=O)=O)c3)ncc2F)ccc1OC(C)C(N)=O` (racemic) [Compound I-121, Racemic N4-[4-(1-Aminocarbonyl)ethoxy-3-methyl]phenyl-N2-(3-aminosulfonyl-4-methyl)phenyl-5-fluoro-2,4-pyrimidinediamine], 14.5 µM; for `Cc1cc(Nc2nc(Nc3cccc(S(N)(=O)=O)c3)ncc2F)cc(C)c1OC(C)C(N)=O` (racemic) [Compound I-123, Racemic N4-[4-(1-Aminocarbonyl)ethoxy-3,5-dimethyl]phenyl-N2-(3-aminosulfonyl)phenyl-5-fluoro-2,4-pyrimidinediamine], 12.8 µM.
For `Cc1ccc(Nc2ncc(F)c(Nc3cc(C)c(OC(C)C(N)=O)c(C)c3)n2)cc1S(N)(=O)=O` (racemic) [Compound I-124, Racemic N4-[4-(1-Aminocarbonyl)ethoxy-3,5-dimethyl]phenyl-N2-(3-aminosulfonyl-4-methyl)phenyl-5-fluoro-2,4-pyrimidinediamine] the value was 10.4 µM; for `CN1CCN(c2ccc(Nc3ncc(F)c(Nc4ccc(OCC#N)cc4)n3)cc2S(N)(=O)=O)CC1` [Compound I-9, N2-[3-Aminosulfonyl-4-(4-methylpiperazin-1-yl)phenyl]-5-fluoro-N4-(4-cyanomethyleneoxyphenyl)-2,4-pyrimidinediamine], 15.6 µM; for `CN1CCN(c2ccc(Nc3ncc(F)c(Nc4ccc(OCC#N)c(F)c4)n3)cc2S(N)(=O)=O)CC1` [Compound I-10, N2-[3-Aminosulfonyl-4-(4-methylpiperazine-1-yl)phenyl]-5-fluoro-N4-(4-cyanomethyleneoxy-3-fluorophenyl)-2,4-pyrimidinediamine], 6.55 µM.
For `Cc1ccc(Nc2ncc(F)c(Nc3ccc(OCC#N)c(F)c3)n2)cc1S(N)(=O)=O` [Compound I-11, N2-(3-Aminosulfonyl-4-methylphenyl)-5-fluoro-N4-(4-cyanomethyleneoxy-3-fluorophenyl)-2,4-pyrimidinediamine], the IC50 is 17.6 µM.
Turning to `N#CCOc1ccc(Nc2nc(Nc3cccc(S(N)(=O)=O)c3)ncc2F)cc1F` [Compound I-12, N2-(3-Aminosulfonylphenyl)-5-fluoro-N4-(4-cyanomethyleneoxy-3-fluorophenyl)-2,4-pyrimidinediamine], the IC50 was 3.2 µM.
For the compound `N#CCOc1ccc(Nc2nc(Nc3cccc(S(N)(=O)=O)c3)ncc2Br)cc1` [Compound I-13, N2-(3-Aminosulfonylphenyl)-5-bromo-N4-(4-cyanomethyleneoxyphenyl)-2,4-pyrimidinediamine], the IC50 was 1.34 µM.
As for `Cc1ccc(Nc2ncc(Br)c(Nc3ccc(OCC#N)cc3)n2)cc1S(N)(=O)=O` [Compound I-14, N2-(3-Aminosulfonyl-4-methylphenyl)-5-bromo-N4-(4-cyanomethyleneoxyphenyl)-2,4-pyrimidinediamine], the IC50 is 0.612 µM.
